Laboratory results taken from ChEMBL document CHEMBL5126513 (Eur J Med Chem, 2022).
Values belong to the molecule of their own block, whether it stands above or below them.

How the values were obtained:
[1] = biological target: T1, Protein cereblon/Tyrosine-protein kinase BTK (Homo sapiens, UniProt Q06187+Q96SW2); experiment: Protac activity at CRBN/BTK in human MINO cells assessed as BTK degradation; format: cell-based
[2] = biological target: T1, Protein cereblon/Tyrosine-protein kinase BTK; experiment: Protac activity at CRBN (unknown origin)/BTK (unknown origin) assessed as BTK degradation; format: protein assay
[3] = biological target: T2, Tyrosine-protein kinase BTK (Homo sapiens, UniProt Q06187); experiment: Inhibition of full-length wild-type BTK (unknown origin) measured by HTRF assay
T2 sequence (Q06187 whole entry): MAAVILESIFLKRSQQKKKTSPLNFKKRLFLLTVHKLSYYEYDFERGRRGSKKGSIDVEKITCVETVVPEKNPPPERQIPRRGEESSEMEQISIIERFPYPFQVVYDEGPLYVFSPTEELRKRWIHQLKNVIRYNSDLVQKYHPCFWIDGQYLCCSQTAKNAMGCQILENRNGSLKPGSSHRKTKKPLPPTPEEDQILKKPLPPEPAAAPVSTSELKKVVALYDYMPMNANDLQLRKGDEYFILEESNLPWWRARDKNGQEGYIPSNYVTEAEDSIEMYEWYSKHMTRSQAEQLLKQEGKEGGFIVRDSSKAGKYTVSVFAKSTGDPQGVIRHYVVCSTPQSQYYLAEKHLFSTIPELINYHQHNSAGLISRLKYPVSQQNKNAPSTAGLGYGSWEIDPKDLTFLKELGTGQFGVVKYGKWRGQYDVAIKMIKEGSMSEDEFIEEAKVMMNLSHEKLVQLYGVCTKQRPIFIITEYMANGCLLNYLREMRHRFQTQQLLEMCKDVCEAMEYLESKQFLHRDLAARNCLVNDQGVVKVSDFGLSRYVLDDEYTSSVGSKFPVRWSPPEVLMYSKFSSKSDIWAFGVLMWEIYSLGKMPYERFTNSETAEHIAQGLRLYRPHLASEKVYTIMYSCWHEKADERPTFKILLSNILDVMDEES

[4] = biological target: T2, Tyrosine-protein kinase BTK; experiment: Inhibition of BTK (unknown origin)
[5] = biological target: Tyrosine-protein kinase Blk (Homo sapiens, UniProt P51451); experiment: Inhibition of BLK (unknown origin)
Tyrosine-protein kinase Blk, sequence (P51451 whole entry): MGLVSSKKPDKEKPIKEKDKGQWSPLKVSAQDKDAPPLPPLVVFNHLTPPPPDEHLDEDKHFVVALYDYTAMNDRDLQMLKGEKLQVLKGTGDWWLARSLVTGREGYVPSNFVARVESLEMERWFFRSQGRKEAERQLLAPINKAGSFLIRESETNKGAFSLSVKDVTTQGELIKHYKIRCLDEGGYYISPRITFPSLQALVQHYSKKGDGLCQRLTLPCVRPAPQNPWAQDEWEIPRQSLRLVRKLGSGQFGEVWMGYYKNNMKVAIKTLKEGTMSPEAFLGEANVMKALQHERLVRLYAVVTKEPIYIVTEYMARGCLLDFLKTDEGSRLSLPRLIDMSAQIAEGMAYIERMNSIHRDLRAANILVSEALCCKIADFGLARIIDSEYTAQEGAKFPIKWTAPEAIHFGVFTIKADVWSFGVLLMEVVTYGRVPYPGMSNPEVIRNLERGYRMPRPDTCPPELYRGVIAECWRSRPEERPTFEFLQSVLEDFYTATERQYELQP

[6] = biological target: T3, Tyrosine-protein kinase TXK (Homo sapiens, UniProt P42681); experiment: Inhibition of TXK (unknown origin)
T3 sequence (P42681 whole entry): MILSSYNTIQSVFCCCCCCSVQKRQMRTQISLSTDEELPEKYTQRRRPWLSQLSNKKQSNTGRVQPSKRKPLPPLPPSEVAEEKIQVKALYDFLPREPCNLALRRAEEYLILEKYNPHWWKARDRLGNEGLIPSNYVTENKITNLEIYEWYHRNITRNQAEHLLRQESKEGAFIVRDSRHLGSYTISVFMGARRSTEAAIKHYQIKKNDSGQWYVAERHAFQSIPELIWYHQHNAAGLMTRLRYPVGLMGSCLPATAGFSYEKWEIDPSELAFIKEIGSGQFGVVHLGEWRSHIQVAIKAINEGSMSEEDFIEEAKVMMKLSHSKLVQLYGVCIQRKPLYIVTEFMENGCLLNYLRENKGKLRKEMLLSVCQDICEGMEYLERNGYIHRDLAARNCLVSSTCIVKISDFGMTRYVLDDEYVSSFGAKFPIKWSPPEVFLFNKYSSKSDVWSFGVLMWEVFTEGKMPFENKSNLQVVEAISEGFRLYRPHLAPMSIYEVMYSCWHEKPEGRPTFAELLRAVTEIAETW

T1 sequence (Q06187 whole entry): as the sequence (Q06187 whole entry) above
T1 sequence (Q96SW2 whole entry): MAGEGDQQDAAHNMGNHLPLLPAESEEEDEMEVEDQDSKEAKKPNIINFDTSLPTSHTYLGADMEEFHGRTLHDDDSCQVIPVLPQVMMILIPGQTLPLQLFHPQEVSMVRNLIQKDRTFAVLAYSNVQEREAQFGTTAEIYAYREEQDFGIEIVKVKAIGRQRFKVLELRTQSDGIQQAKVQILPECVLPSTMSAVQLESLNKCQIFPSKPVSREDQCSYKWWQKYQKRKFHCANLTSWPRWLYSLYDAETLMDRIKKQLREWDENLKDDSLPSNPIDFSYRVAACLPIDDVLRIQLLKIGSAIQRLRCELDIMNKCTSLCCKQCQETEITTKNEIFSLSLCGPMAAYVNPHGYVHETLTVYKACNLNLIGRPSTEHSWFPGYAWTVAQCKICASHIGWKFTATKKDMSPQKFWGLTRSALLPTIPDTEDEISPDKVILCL

DC50 [1]: 9.2 nM
SMILES: Nc1ncnc2c1c(-c1ccc(Oc3ccccc3)cc1)nn2[C@@H]1CCCN(C(=O)c2cn(CCOCCOCCOCCCc3ccc4c(c3)CN(C3CCC(=O)NC3=O)C4=O)nn2)C1 (stereo partly specified)

DC50 [2]: 41.9 nM
SMILES: O=C1CCC(N2C(=O)c3ccc(NCCOCCOCCOCCOCCOCCNC(=O)N[C@H]4CC[C@@H](Nc5ncnc6[nH]cc(C(=O)c7ccc(Oc8ccccc8)cc7Cl)c56)CC4)cc3C2=O)C(=O)N1 (stereo partly specified)

IC50 [3]: 10.7 nM
SMILES: Cc1cc(Nc2ncc3c(n2)N(C)CN(c2cc(NC(=O)c4cccc(C(F)(F)F)c4)ccc2C)C3)n(C)n1

IC50 [4]: < 1 nM
SMILES: COc1ccc(F)cc1C(=O)NCc1ccc(-c2nn([C@@H](C)C(F)(F)F)c(N)c2C(N)=O)cc1 [PIRTOBRUTINIB]

IC50 [5]: 1130 nM
IC50 [6]: 116 nM
SMILES: CC#CC(=O)N1CC[C@@H](n2c(=O)n(-c3ccc(Oc4ccccc4)cc3)c3c(N)ncnc32)C1 [TIRABRUTINIB]
